Assay [1] concerns the target T1, human recombinant Monoacylglycerol Lipase (Homo sapiens, UniProt Q99685).
T1 sequence (Q99685 1-303): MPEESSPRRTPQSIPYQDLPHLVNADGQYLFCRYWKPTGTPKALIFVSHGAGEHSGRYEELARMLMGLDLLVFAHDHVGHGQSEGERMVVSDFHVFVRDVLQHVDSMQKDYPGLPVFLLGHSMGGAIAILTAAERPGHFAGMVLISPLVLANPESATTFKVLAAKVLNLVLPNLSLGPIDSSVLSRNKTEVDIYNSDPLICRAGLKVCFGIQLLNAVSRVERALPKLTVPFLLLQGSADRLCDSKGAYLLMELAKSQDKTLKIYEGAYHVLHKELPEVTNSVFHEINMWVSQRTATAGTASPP
Put plainly: MAGL inactivation (kinact/KI from enzyme progress curves, T=0 min protocol). As to conditions: from plot of Kobs vs. compound concentration, geometric mean of 2-5 determinations (b: ≥6).

Assay [2] concerns the target T1, human recombinant Monoacylglycerol Lipase. Put plainly: MAGL enzymatic assay (IC50; 7-HCA substrate added at T=0 min or T=30 min). The assay is classed as biochemical. Particulars: geometric mean of 2-5 determinations unless otherwise indicated.
[3] abbreviates: MAGL (T = 30 min) IC50, substrate 7-HCA added after 30 minute incubation (T=30 min).
The mark [4] stands for this setting: substrate 7-HCA added immediately (T=0 min), read-out: MAGL (T = 0 min) IC50.

Where two headings read alike, the source gives them in different places.

Take `O=C(O[C@H](CO)C(F)(F)F)N1CCC2(CC1)CC(c1c(F)cccc1F)CO2` (single isomer, unassigned) [Example 32]: in assay [1], the “MAGL kinact/KI” value is given as 233000 1/s per M. Also, the IC50 in assay [2] (setting [3]) came out at 0.4 nM; in assay [2] (setting [4]) it was 5 nM.

With `N#Cc1cccc(C2CCOC3(CCN(C(=O)O[C@H](CO)C(F)(F)F)CC3)C2)c1` (single isomer, unassigned) [Example 73], the “MAGL kinact/KI” value in assay [1] is reported as 8870 1/s per M. In addition, the IC50 in assay [2] (setting [3]) turned out to be 3 nM; in assay [2] (setting [4]), 26 nM.

On to `O=C(O[C@H](CO)C(F)(F)F)N1CCC2(CC1)CC(n1ccc(C(F)(F)F)n1)CO2` (single isomer, unassigned) [Example 53], for which the “MAGL kinact/KI” value in assay [1] is 66900 1/s per M. Also, the IC50 in assay [2] (setting [3]) amounted to 1 nM; in assay [2] (setting [4]) it was 9 nM.

`O=C(O[C@H](CO)C(F)(F)F)N1CCC2(CC1)CC(c1cccc(C(F)(F)F)n1)CO2` (single isomer, unassigned) [Example 14]: the “MAGL kinact/KI” value in assay [1] is on record as 124000^b 1/s per M. For the same compound, the IC50 in assay [2] (setting [3]) is 1 nM; in assay [2] (setting [4]) it was 5 nM.

With `O=C(O[C@H](CO)C(F)(F)F)N1CCC2(CC1)CC(c1ccc(C(F)(F)F)nc1)C2` [Example 67, (2R)-1,1,1-trifluoro-3-hydroxypropan-2-yl 2-[6-(trifluoromethyl)pyridin-3-yl]-7-azaspiro[3.5]nonane-7-carboxylate], the “MAGL kinact/KI” value in assay [1] was 60600 1/s per M. Besides, the values for the half-maximal inhibitory concentration (IC50) in assay [2] (setting [3]) and in assay [2] (setting [4]) were 2 nM and 14 nM, respectively.

As to `O=C(O[C@H](CO)C(F)(F)F)N1CCC2(CC1)CC(c1ccc(C(F)F)cn1)CO2` (single isomer, unassigned) [Example 39], the “MAGL kinact/KI” value in assay [1] is on record as 5180 1/s per M. Besides, the IC50 in assay [2] (setting [3]) was found to be 5 nM; in assay [2] (setting [4]) it was 43 nM.

For the compound `N#Cc1ccc(C2CC3(CCN(C(=O)O[C@H](CO)C(F)(F)F)CC3)C2)nc1` [Example 84, (2R)-1,1,1-trifluoro-3-hydroxypropan-2-yl 2-(5-cyanopyridin-2-yl)-7-azaspiro[3.5]nonane-7-carboxylate], the “MAGL kinact/KI” value in assay [1] was 4000 1/s per M. In addition, the 50% inhibitory concentration (IC50) is 15 nM in assay [2] (setting [3]) and 143 nM in assay [2] (setting [4]).

Take `O=C(O[C@H](CO)C(F)(F)F)N1CCC2(CC1)CC(c1ccc(C(F)F)nc1)C2` [Example 82, (2R)-1,1,1-trifluoro-3-hydroxypropan-2-yl 2-[6-(difluoromethyl)pyridin-3-yl]-7-azaspiro[3.5]nonane-7-carboxylate]: in assay [1], the “MAGL kinact/KI” value is 19300 1/s per M. Besides, the IC50 was found to be 2 nM in assay [2] (setting [3]) and 24 nM in assay [2] (setting [4]).

In the case of `CN(C1CC2(CCN(C(=O)O[C@H](CO)C(F)(F)F)CC2)C1)S(=O)(=O)C(C)(C)C` [Example 61, (2R)-1,1,1-trifluoro-3-hydroxypropan-2-yl 2-[(tert-butylsulfonyl)(methyl)amino]-7-azaspiro[3.5]nonane-7-carboxylate], in assay [1], the “MAGL kinact/KI” value is recorded as 66900 1/s per M. Besides, the figures for the IC50 in assay [2] (setting [3]) and in assay [2] (setting [4]) were 1 nM and 9 nM, respectively.

As to `O=C(O[C@H](CO)C(F)(F)F)N1CCC2(CC1)CC(n1cc(C(F)(F)F)cn1)C2` [Example 1, (2R)-1,1,1-Trifluoro-3-hydroxypropan-2-yl 2-[4-(trifluoromethyl)-1H-pyrazol-1-yl]-7-azaspiro[3.5]nonane-7-carboxylate], in assay [1], the “MAGL kinact/KI” value is 22200 1/s per M. Further, the results for the 50% inhibitory concentration (IC50) in assay [2] (setting [3]) and in assay [2] (setting [4]) were 2 nM and 12 nM, respectively.

As to `N#Cc1ccc(C2COC3(CCN(C(=O)O[C@H](CO)C(F)(F)F)CC3)C2)cc1` (single isomer, unassigned) [Example 31], the “MAGL kinact/KI” value in assay [1] is reported as 8060 1/s per M. The IC50 stood at 4 nM in assay [2] (setting [3]) and 33 nM in assay [2] (setting [4]).

As to `O=C(O[C@H](CO)C(F)(F)F)N1CCC2(CC1)CC(c1ccccn1)C2` [Example 81, (2R)-1,1,1-trifluoro-3-hydroxypropan-2-yl 2-(pyridin-2-yl)-7-azaspiro[3.5]nonane-7-carboxylate], the “MAGL kinact/KI” value in assay [1] was 20400 1/s per M. Also, the values for the half-maximal inhibitory concentration (IC50) in assay [2] (setting [3]) and in assay [2] (setting [4]) were 4 nM and 45 nM, respectively.

Take `O=C(O[C@H](CO)C(F)(F)F)N1CCC2(CCC(n3cc(C(F)(F)F)cn3)CO2)CC1` (single isomer, unassigned) [Example 69]: in assay [1], the “MAGL kinact/KI” value was 71900 1/s per M. In addition, the values for the half-inhibitory concentration (IC50) in assay [2] (setting [3]) and in assay [2] (setting [4]) were 1 nM and 10 nM, respectively.

As for `CN([C@H]1COC2(CCN(C(=O)O[C@H](CO)C(F)(F)F)CC2)C1)S(=O)(=O)C(C)(C)C` [Example 6, (2R)-1,1,1-Trifluoro-3-hydroxypropan-2-yl (3R)-3-[(tert-butylsulfonyl)(methyl)amino]-1-oxa-8-azaspiro[4.5]decane-8-carboxylate], the “MAGL kinact/KI” value in assay [1] is given as 6630^b 1/s per M. For the same compound, the IC50 in assay [2] (setting [3]) was 8 nM; in assay [2] (setting [4]) it was 98 nM.

Regarding `O=C(O[C@H](CO)C(F)(F)F)N1CCC2(CC1)CC(n1cccn1)C2` [Example 56, (2R)-1,1,1-trifluoro-3-hydroxypropan-2-yl 2-(1H-pyrazol-1-yl)-7-azaspiro[3.5]nonane-7-carboxylate], the “MAGL kinact/KI” value in assay [1] is listed as 1420 1/s per M. For the same compound, the half-inhibitory concentration (IC50) in assay [2] (setting [3]) was 30 nM; in assay [2] (setting [4]) it was 310 nM.

Regarding `CC(C)(C)c1cnn(C2COC3(CCN(C(=O)O[C@H](CO)C(F)(F)F)CC3)C2)c1` (single isomer, unassigned) [Example 21], in assay [1], the “MAGL kinact/KI” value was 24400 1/s per M. Moreover, the IC50 in assay [2] (setting [3]) was 2 nM; in assay [2] (setting [4]), 9 nM.

With `O=C(O[C@H](CO)C(F)(F)F)N1CCC2(CC1)CC(c1cc(C(F)F)ccn1)CO2` (single isomer, unassigned) [Example 35], the “MAGL kinact/KI” value in assay [1] is recorded as 23000 1/s per M. The IC50 in assay [2] (setting [3]) was found to be 3 nM; in assay [2] (setting [4]) it was 31 nM.

Regarding `O=C(O[C@H](CO)C(F)(F)F)N1CCC2(CC1)CC(Oc1cccc(C(F)F)c1)C2` [Example 60, (2R)-1,1,1-trifluoro-3-hydroxypropan-2-yl 2-[3-(difluoromethyl)phenoxy]-7-azaspiro[3.5]nonane-7-carboxylate], the “MAGL kinact/KI” value in assay [1] is 267000 1/s per M. Also, the IC50 in assay [2] (setting [3]) was 0.3 nM; in assay [2] (setting [4]), 2 nM.

Regarding `O=C(O[C@H](CO)C(F)(F)F)N1CCC2(CC1)CC(c1cccc(C(F)F)n1)C2` [Example 77, (2R)-1,1,1-trifluoro-3-hydroxypropan-2-yl 2-[6-(difluoromethyl)pyridin-2-yl]-7-azaspiro[3.5]nonane-7-carboxylate], the “MAGL kinact/KI” value in assay [1] is on record as 82100 1/s per M. The 50% inhibitory concentration (IC50) is 0.6 nM in assay [2] (setting [3]) and 4 nM in assay [2] (setting [4]).

Consider `CN(C1CC2(CCN(C(=O)O[C@H](CO)C(F)(F)F)CC2)C1)S(=O)(=O)c1ccccc1` [Example 45, (2R)-1,1,1-trifluoro-3-hydroxypropan-2-yl 2-[methyl(phenylsulfonyl)amino]-7-azaspiro[3.5]nonane-7-carboxylate], for which the “MAGL kinact/KI” value in assay [1] is given as 63200 1/s per M. Moreover, the values for the half-inhibitory concentration (IC50) in assay [2] (setting [3]) and in assay [2] (setting [4]) were 1 nM and 9 nM, respectively.

Regarding `O=C(O[C@H](CO)C(F)(F)F)N1CCC2(CC1)CC(c1ccc(C(F)(F)F)cn1)CO2` (single isomer, unassigned) [Example 40], the “MAGL kinact/KI” value in assay [1] is 21800 1/s per M. Also, the results for the half-inhibitory concentration (IC50) in assay [2] (setting [3]) and in assay [2] (setting [4]) were 3 nM and 9 nM, respectively.

The values above are taken from US10626125B2, “1,1,1-trifluoro-3-hydroxypropan-2-yl carbamate derivatives as MAGL inhibitors” (PFIZER INC., priority 2017, dated 2020).
